Read-outs that look alike come from different tables or passages of the source.
Key:
Assay type in all cases: cell-based
[1] = tested on: C. amalonaticus clinical isolates; test: Broth microdilution MIC, clinical isolate strains (NAUTICA); details: Table 4B; each table row is one clinical isolate; unit assumed
Description: (§1) All clinical isolates tested were from The North American Urinary Tract Infection Collaborative Alliance (NAUTICA) which is a UTI surveillance study involving 40 medical centres (30 from the US and 10 from Canada). Each centre submitted up to 50 consecutive outpatient midstream urine isolates. All isolates were deemed significant urinary tract pathogens by individual laboratory criteria and identified to the species level by each laboratory's existing protocol. Isolates were transported to the coordinating laboratory (Health Sciences Centre, Winnipeg, Canada) on charcoal swabs. Only one isolate per patient was accepted. Upon receipt, isolates were cultured by the coordinating laboratory, stocked in skim milk, and stored at −80° C. awaiting reference antibiotic susceptibility testing. Elementary demographic information was also compiled for each isolate. Isolates were selected randomly from the above pool to represent 18 different species of Enterobacteriaceae and non-Enterobacteriaceae. An average of 5 strains of each species were tested for a total of 93 organisms. In addition, 23 reference (ATCC) [both gram negative and gram positive] strains were tested.
(§2) Susceptibilities to the compounds were determined using the National Committee for Clinical Laboratory Standards (NCCLS) M7-A6 broth microdilution method. […] DMSO controls were incorporated into the panel to mimic the quantity of DMSO used in dissolving some of the compounds at the higher concentrations. Each final panel well volume was 100 μl with a bacterial inoculum of 5×10^5 colony forming units (CFU)/ml. Panels were read following 16 to 20 hours of incubation at 35° C. in ambient air. The minimum inhibitory concentration (MIC) was defined as the lowest concentration of antimicrobial inhibiting visible growth. Quality control (QC) was performed using four ATCC QC organisms that were run with every batch set up to insure reproducibility.

[2] = tested on: S. maltophilia clinical isolates; test: as above; details: Table 4B; each table row is one clinical isolate; unit assumed
Description: as §1, §2

[3] = tested on: S. liquifaciens clinical isolates; test: as above; details: Table 4B; each table row is one clinical isolate; unit assumed
Description: as §1, §2

[4] = tested on: E. aerogenes clinical isolates; test: as above; details: Table 4B; each table row is one clinical isolate; unit assumed
Description: as §1, §2

[5] = tested on: M. morganii clinical isolates; test: as above; details: Table 4B; each table row is one clinical isolate; unit assumed
Description: as §1, §2

[6] = tested on: P. stuartii clinical isolates; test: as above; details: Table 4B; each table row is one clinical isolate; unit assumed
Description: as §1, §2

[7] = tested on: P. vulgaris clinical isolates; test: as above; details: Table 4B; each table row is one clinical isolate; unit assumed
Description: as §1, §2

[8] = tested on: P. retgerri clinical isolates; test: as above; details: Table 4B; each table row is one clinical isolate; unit assumed
Description: as §1, §2

[9] = tested on: E. cloacae clinical isolates; test: as above; details: Table 4B; each table row is one clinical isolate; unit assumed
Description: as §1, §2

[10] = tested on: B. cepacia clinical isolates; test: as above; details: Table 4B; each table row is one clinical isolate; unit assumed
Description: as §1, §2

[11] = tested on: C. freundii clinical isolates; test: as above; details: Table 4B; each table row is one clinical isolate; in µg/mL (unit assumed)
Description: as §1, §2

[12] = tested on: A. baumanii clinical isolates; test: as above; details: Table 4B; each table row is one clinical isolate; unit assumed
Description: as §1, §2

[13] = tested on: K. pneumoniae clinical isolates; test: as above; details: Table 4B; each table row is one clinical isolate; unit assumed
Description: as §1, §2

[14] = tested on: C. koseril clinical isolates; test: as above; details: Table 4B; each table row is one clinical isolate; unit assumed
Description: as §1, §2

[15] = tested on: K. oxytoca clinical isolates; test: as above; details: Table 4B; each table row is one clinical isolate; unit assumed
Description: as §1, §2

[16] = tested on: S. marcescens clinical isolates; test: as above; details: Table 4B; each table row is one clinical isolate; unit assumed
Description: as §1, §2

[17] = tested on: E. coli clinical isolates; test: as above; details: Table 4B; each table row is one clinical isolate; unit assumed
Description: as §1, §2

[18] = tested on: P. mirabilis clinical isolates; test: as above; details: Table 4B; each table row is one clinical isolate; unit assumed
Description: as §1, §2

S. warneri ATCC 27836 = test: Broth microdilution MIC, ATCC strains; details: Staphylococcus warneri, ATCC27836; S. warneri ATCC 27836; read-out: MIC (growth inhibition, microdilution method)
Description: as §1, §2

[19] = tested on: S. saprophyticus ATCC 15305; test: Broth microdilution MIC, ATCC strains; details: Staphylococcus saprophyticus, ATCC15305; S. saprophyticus ATCC 15305; read-out: MIC (growth inhibition, microdilution method)
Description: as §1, §2

S. marcescens ATCC 8100 = test: Broth microdilution MIC, ATCC strains; details: Serratia marcescens, ATCC8100; S. marcescens ATCC 8100; read-out: MIC (growth inhibition, microdilution method)
Description: as §1, §2

MRSA ATCC 33591 = test: Broth microdilution MIC, ATCC strains; details: Staphylococcus aureus; MRSA ATCC 33591; read-out: MIC (growth inhibition, microdilution method)
Description: as §1, §2

K. oxytoca ATCC 49131 = test: Broth microdilution MIC, ATCC strains; details: Klebsiella oxytoca, ATCC49131; K. oxytoca ATCC 49131; read-out: MIC (growth inhibition, microdilution method)
Description: as §1, §2

A. anitratus ATCC 19606 = test: Broth microdilution MIC, ATCC strains; details: Acinetobacter calcoaceticus, ATCC19606; A. anitratus ATCC 19606; read-out: MIC (growth inhibition, microdilution method)
Description: as §1, §2

E. cloacae ATCC 23355 = test: Broth microdilution MIC, ATCC strains; details: Enterobacter cloacae, ATCC23355; E. cloacae ATCC 23355; read-out: MIC (growth inhibition, microdilution method)
Description: as §1, §2

P. mirabilis ATCC 29245 = test: Broth microdilution MIC, ATCC strains; details: Proteus mirabilis, ATCC29245; P. mirabilis ATCC 29245; read-out: MIC (growth inhibition, microdilution method)
Description: as §1, §2

E. faecalis ATCC 29212 = test: Broth microdilution MIC, ATCC strains; details: Enterococcus faecalis, read-out: MIC (growth inhibition, microdilution method)
Description: as §1, §2

E. coli ATCC 25922 = test: Broth microdilution MIC, ATCC strains; details: Escherichia coli, ATCC25922, E. coli ATCC 25922; read-out: MIC (growth inhibition, microdilution method)
Description: as §1, §2

K. pneumoniae ATCC 13883 = test: Broth microdilution MIC, ATCC strains; details: Klebsiella pneumoniae, ATCC13883; K. pneumoniae ATCC 13883; read-out: MIC (growth inhibition, microdilution method)
Description: as §1, §2

P. rettgeri CAP = test: Broth microdilution MIC, reference strains; details: Providencia rettgeri; P. rettgeri (CAP in Table 1); read-out: MIC (growth inhibition, microdilution method)
Description: as §1, §2

[20] = ATCC29212, E. faecalis ATCC 29212
[21] = ATCC29212, E. faecalis, ATCC number not given

COC(=O)c1sc(-c2ccc(F)cc2)cc1-c1nnn(C)n1 [DNM-144, 5-(4-fluoro-phenyl)-3-(2-methyl-2H-tetrazol-5-yl)-thiophene-2-carboxylic acid methyl ester]
MIC, C. AMALONATICUS [1]: > 8 µg/mL | MIC, S. MALTOPHILIA [2]: > 8 µg/mL | MIC, S. LIQUEFACIENS [3]: > 8 µg/mL | MIC, E. AEROGENES [4]: > 8 µg/mL | MIC, M. MORGANII [5]: > 8 µg/mL | MIC, P. STUARTII [6]: > 8 µg/mL | MIC, P. VULGARIS [7]: > 8 µg/mL | MIC, P. RETTGERI [8]: > 8 µg/mL | MIC, E. CLOACAE [9]: > 8 µg/mL | MIC, B. CEPACIA [10]: > 8 µg/mL | MIC, C. FREUNDII [11]: >8 | MIC, A. BAUMANII [12]: > 8 µg/mL | MIC, K. PNEUMONIAE [13]: > 8 µg/mL | MIC, C. KOSERI [14]: > 8 µg/mL | MIC, K. OXYTOCA [15]: > 8 µg/mL | MIC, S. MARCESCENS [16]: > 8 µg/mL | MIC, E. COLI [17]: > 8 µg/mL | MIC, P. MIRABILIS [18]: > 8 µg/mL | MIC (S. warneri ATCC 27836): > 8 µg/mL | MIC [19]: > 8 µg/mL | MIC (S. marcescens ATCC 8100): > 8 µg/mL | MIC (MRSA ATCC 33591): > 8 µg/mL | MIC (K. oxytoca ATCC 49131): > 8 µg/mL | MIC (A. anitratus ATCC 19606): > 8 µg/mL | MIC (E. cloacae ATCC 23355): > 8 µg/mL | MIC (P. mirabilis ATCC 29245): > 8 µg/mL | MIC (E. faecalis ATCC 29212; [20]): > 8 µg/mL | MIC (E. faecalis ATCC 29212; [21]): > 8 µg/mL | MIC (E. coli ATCC 25922): > 8 µg/mL | MIC (K. pneumoniae ATCC 13883): > 8 µg/mL | MIC (P. rettgeri CAP): > 8 µg/mL

Cn1nnc(-c2cc(-c3ccc(F)cc3)sc2-c2ccc(F)cc2)n1 [DNM-132, 5-(2,5-bis(4-fluorophenyl)thiophen-3-yl)-2-methyl-2H-tetrazole]
MIC, C. AMALONATICUS [1]: > 16 µg/mL | MIC, S. MALTOPHILIA [2]: > 16 µg/mL | MIC, S. LIQUEFACIENS [3]: > 16 µg/mL | MIC, E. AEROGENES [4]: > 16 µg/mL | MIC, M. MORGANII [5]: > 16 µg/mL | MIC, P. STUARTII [6]: > 16 µg/mL | MIC, P. VULGARIS [7]: > 16 µg/mL | MIC, P. RETTGERI [8]: > 16 µg/mL | MIC, E. CLOACAE [9]: > 16 µg/mL | MIC, B. CEPACIA [10]: > 16 µg/mL | MIC, C. FREUNDII [11]: >16 | MIC, A. BAUMANII [12]: > 16 µg/mL | MIC, K. PNEUMONIAE [13]: > 16 µg/mL | MIC, C. KOSERI [14]: > 16 µg/mL | MIC, K. OXYTOCA [15]: > 16 µg/mL | MIC, S. MARCESCENS [16]: > 16 µg/mL | MIC, E. COLI [17]: > 16 µg/mL | MIC, P. MIRABILIS [18]: > 16 µg/mL | MIC (S. warneri ATCC 27836): > 16 µg/mL | MIC [19]: > 16 µg/mL | MIC (S. marcescens ATCC 8100): > 16 µg/mL | MIC (MRSA ATCC 33591): > 16 µg/mL | MIC (K. oxytoca ATCC 49131): > 16 µg/mL | MIC (A. anitratus ATCC 19606): > 16 µg/mL | MIC (E. cloacae ATCC 23355): > 16 µg/mL | MIC (P. mirabilis ATCC 29245): > 16 µg/mL | MIC (E. faecalis ATCC 29212; [20]): > 16 µg/mL | MIC (E. faecalis ATCC 29212; [21]): > 16 µg/mL | MIC (E. coli ATCC 25922): > 16 µg/mL | MIC (K. pneumoniae ATCC 13883): > 16 µg/mL | MIC (P. rettgeri CAP): > 16 µg/mL
